The text below walks through data of patent publication US7649004B2, “Pyridine derivatives” (Pfizer, Inc., priority 2004, dated 2010).

The target of the test is T1, Human Nav1.8 (Homo sapiens, UniProt Q9Y5Y9).
T1 construct: expressed in transfected cells; host or cells: HEK293
Briefly: VIPR assay for Nav1.8 compounds (FRET membrane potential, deltamethrin-opened channels). The format is cell-based. Conditions: HEK293 cells expressing human Nav1.8; deltamethrin as opener; read-out: affinity for the NaV1.8 channel (binding affinity; IC50 from VIPR assay). From the text: The ability of the pyridine derivatives of the formula (I) to inhibit the NaV1.8 channel may be measured using the assay described below.
VIPR Assay for Nav1.8 Compounds
This screen is used to determine the effects of compounds on tetrodotoxin-resistant (TTX-R) sodium channels in Human Nav1.8 (HEK293) expressing cell line, utilising the technology of Aurora's fluorescent Voltage/Ion Probe Reader (VIPR). This experiment is based on FRET (Fluorescence Resonance Energy Transfer) and uses two fluorescent molecules. The first molecule, Oxonol (DiSBAC2(3)), is a highly fluorescent, negatively charged, hydrophobic ion that “senses” the trans-membrane electrical potential. […] The voltage dependent redistribution is transduced into a ratiometric fluorescent readout via a second fluorescent molecule (Coumarin (CC2-DMPE)) that binds specifically to one face of the plasma membrane and functions as a FRET partner to the mobile voltage-sensing ion. […]
2. […] Once the incubation is complete, the cells are ready to be assayed using the VIPR for sodium addback membrane potential.
The data was analyzed and reported as normalised ratios of intensities measured in the 460 nm and 580 nm channels. […]
Rf/Ri ratio values are plotted using Excel Labstats (curve fit) or analysed via ECADA to determine an IC50 value for each compound.

Molecules are shown by their SMILES.

T1 sequence (Q9Y5Y9 whole entry): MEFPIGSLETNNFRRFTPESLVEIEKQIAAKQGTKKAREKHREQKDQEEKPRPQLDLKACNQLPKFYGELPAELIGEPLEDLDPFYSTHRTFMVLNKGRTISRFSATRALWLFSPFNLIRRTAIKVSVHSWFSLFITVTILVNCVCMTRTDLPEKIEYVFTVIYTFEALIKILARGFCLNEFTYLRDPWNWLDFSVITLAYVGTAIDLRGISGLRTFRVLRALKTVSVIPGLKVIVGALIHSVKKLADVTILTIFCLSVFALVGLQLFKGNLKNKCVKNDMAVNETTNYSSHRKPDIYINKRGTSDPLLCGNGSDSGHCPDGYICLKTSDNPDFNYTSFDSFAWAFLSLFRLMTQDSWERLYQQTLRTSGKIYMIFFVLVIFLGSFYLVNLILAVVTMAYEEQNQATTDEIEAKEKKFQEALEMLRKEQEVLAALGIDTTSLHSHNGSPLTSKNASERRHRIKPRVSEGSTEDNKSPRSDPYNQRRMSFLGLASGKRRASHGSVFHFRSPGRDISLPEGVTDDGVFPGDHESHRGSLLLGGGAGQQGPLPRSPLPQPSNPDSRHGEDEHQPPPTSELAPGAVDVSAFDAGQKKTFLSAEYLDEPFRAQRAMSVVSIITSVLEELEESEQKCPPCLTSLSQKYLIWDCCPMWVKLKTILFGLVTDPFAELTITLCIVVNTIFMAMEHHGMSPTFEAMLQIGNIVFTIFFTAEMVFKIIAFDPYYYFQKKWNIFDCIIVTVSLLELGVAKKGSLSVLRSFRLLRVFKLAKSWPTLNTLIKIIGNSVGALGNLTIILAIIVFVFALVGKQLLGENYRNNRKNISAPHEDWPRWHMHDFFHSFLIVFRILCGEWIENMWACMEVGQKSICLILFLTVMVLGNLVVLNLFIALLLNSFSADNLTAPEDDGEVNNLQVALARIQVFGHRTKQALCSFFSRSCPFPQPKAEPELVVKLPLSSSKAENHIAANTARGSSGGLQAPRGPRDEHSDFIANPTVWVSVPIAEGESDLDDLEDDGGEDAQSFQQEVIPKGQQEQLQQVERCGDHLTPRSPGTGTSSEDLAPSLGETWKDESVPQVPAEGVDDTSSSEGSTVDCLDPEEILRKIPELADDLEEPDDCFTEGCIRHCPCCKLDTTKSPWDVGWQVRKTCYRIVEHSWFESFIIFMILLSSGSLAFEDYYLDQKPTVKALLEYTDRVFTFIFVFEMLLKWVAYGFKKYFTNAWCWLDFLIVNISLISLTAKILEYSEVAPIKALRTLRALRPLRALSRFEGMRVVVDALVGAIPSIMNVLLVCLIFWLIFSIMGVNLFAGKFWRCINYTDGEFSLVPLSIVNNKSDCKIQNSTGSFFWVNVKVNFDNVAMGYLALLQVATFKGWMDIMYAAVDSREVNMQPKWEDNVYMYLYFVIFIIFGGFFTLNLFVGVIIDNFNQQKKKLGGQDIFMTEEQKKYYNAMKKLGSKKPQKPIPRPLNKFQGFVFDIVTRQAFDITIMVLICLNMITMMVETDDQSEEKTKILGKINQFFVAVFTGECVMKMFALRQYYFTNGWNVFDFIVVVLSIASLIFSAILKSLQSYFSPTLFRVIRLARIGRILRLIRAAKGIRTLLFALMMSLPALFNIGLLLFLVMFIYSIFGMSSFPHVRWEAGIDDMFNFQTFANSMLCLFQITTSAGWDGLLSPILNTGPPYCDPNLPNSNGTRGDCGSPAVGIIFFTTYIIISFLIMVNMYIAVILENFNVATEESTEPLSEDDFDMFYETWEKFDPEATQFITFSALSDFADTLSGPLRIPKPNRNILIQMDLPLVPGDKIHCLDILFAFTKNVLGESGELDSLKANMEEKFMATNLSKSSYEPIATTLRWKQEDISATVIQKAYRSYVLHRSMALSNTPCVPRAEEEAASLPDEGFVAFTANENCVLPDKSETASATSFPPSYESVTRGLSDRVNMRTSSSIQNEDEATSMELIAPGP

Regarding `CNC(=O)c1ccc(-c2cc(Cl)cc(Cl)c2Cl)c(N)n1` [Example 1, 6-Amino-5-(2,3,5-trichloro-phenyl)-pyridine-2-carboxylic acid methylamide], the IC50 was determined as 2040 nM.
